The subject of one series is fetal bovine serum. The series is described as follows: Binding to fetal bovine serum (plasma protein binding), centrifugal filter device, HPLC. It is filed as in vitro ADME. Conditions: fetal bovine serum. Here is the method:
(§1) Semi-automatic high-throughput determination of plasma protein binding using a 96-well plate filtrate assembly and fast liquid chromatography—tandem mass spectrometry. […] Stock solutions were prepared in DMSO at 100× higher concentrations. A 5% w/v solution of fetal bovine serum in phosphate buffered saline was prepared. An aliquot (10 μL of the stock solution was added to 990 μL of the PBS solution containing 5% fetal bovine serum in a glass tube which was then incubated in a shaking water bath at 37° C. for 30 min. 500 μL of the solution was then transferred to a centrifugal filter device (Amicon Ultra 0.5 ml # UFC503096) and centrifuged at 14 000g, 15 min. After this time, the filter units were removed and placed (upside down) in a collecting tube containing 477 μL, of PBS. The latter was centrifuged at 2000g, 2 min to obtain the retentate. […] J.

Test in series [1]: as above
It is filed as in vitro ADME. Conditions: bovine, 5% w/v fetal bovine serum in phosphate buffered saline; for fraction unbound at 30 min, 1 µM / fraction unbound at 30 min, 4 µM / fraction unbound at 30 min, 10 µM / fraction unbound at 30 min, 25 µM: 5% fetal bovine serum in PBS; for fraction unbound at 30 min: all conc (1, 4, 10, 25 uM), read-out: % Bound Average, all conc (converted). On the procedure:
as §1

The mark [2] stands for this setting: read-out: % Bound Average (converted).
Where [3] appears, read: read-out: % Bound Run 1 (converted).
The mark [4] stands for this setting: read-out: % Bound Run 2 (converted).
[5] abbreviates: read-out: % Bound Run 3 (converted).

From patent US8742100B2, “Small molecule inhibitors of isoprenylcysteine carboxyl methyltransferase with potential anticancer activity” (National University of Singapore, priority 2009, dated 2014) come the findings set out here.

Read-outs that look alike come from different tables or passages of the source.

`CCCCCCCCn1cc(CN(CC)CC)c2cc(-c3cccc(C)c3)ccc21` [Compound J17G, N-ethyl-N-((1-octyl-5-m-tolyl-1H-indol-3-yl)methyl)ethanamine]: the “binding capacity compared with cysmethynil” value with fetal bovine serum was “lower binding capacities than cysmethynil”. Moreover, the fraction unbound at 30 min, 1 µM in series [1] (setting [2]) was 0.182; in series [1] (setting [3]), 0.17; in series [1] (setting [4]), 0.224; in series [1] (setting [5]), 0.151. Besides, the fraction unbound at 30 min, 4 µM was 0.272 in series [1] (setting [2]), 0.274 in series [1] (setting [3]), 0.301 in series [1] (setting [4]) and 0.243 in series [1] (setting [5]). The fraction unbound at 30 min, 10 µM in series [1] (setting [2]) was 0.299; in series [1] (setting [3]), 0.317; in series [1] (setting [4]) it was 0.353; in series [1] (setting [5]), 0.226. Moreover, the fraction unbound at 30 min, 25 µM is 0.304 in series [1] (setting [2]), 0.286 in series [1] (setting [3]), 0.352 in series [1] (setting [4]) and 0.275 in series [1] (setting [5]). Moreover, the fraction unbound at 30 min in series [1] is 0.264.

For `CCN(CC)Cc1cn(CC=C(C)C)c2ccc(-c3cccc(C)c3)cc12` [Compound J38G, N-ethyl-N-((1-(3-methylbut-2-enyl)-5-m-tolyl-1H-indol-3-yl)methyl)ethanamine], the “binding capacity compared with cysmethynil” value with fetal bovine serum is given as “lower binding capacities than cysmethynil”. In addition, in series [1] (setting [2]), the fraction unbound at 30 min, 1 µM is 0.776; the fraction unbound at 30 min, 4 µM was 0.638; the fraction unbound at 30 min, 10 µM is 0.765; the fraction unbound at 30 min, 25 µM was 0.737. Moreover, in series [1] (setting [3]), the fraction unbound at 30 min, 1 µM is 0.747; the fraction unbound at 30 min, 4 µM was 0.616; the fraction unbound at 30 min, 10 µM is 0.697; the fraction unbound at 30 min, 25 µM was 0.725. Further, in series [1] (setting [4]), the fraction unbound at 30 min, 1 µM was 0.845; the fraction unbound at 30 min, 4 µM was 0.676; the fraction unbound at 30 min, 10 µM was 0.783; the fraction unbound at 30 min, 25 µM was 0.792. Also, in series [1] (setting [5]), the fraction unbound at 30 min, 1 µM was 0.737; the fraction unbound at 30 min, 4 µM is 0.621; the fraction unbound at 30 min, 10 µM is 0.815; the fraction unbound at 30 min, 25 µM was 0.693. For the same compound, the fraction unbound at 30 min in series [1] is 0.729.
